Measurements: patent US11369609B2, “Small molecule Wnt inhibitor as treatment for dyslipidemia” (Yale University, priority 2019, dated 2022)

How the values were obtained:
[1] = test system: canonical Wnt signaling pathway; assay: qPCR of canonical Wnt-dependent genes in Wnt3a-treated MLECs; assay type: cell-based, mouse
Experimental: ChIP DNA or total RNA was used for qPCR. Total RNA was isolated using standard Trizol protocol. RNA was reverse transcribed using the iScript cDNA Synthesis kit (Bio-Rad) and qPCR was performed on a Bio-Rad C1000 Touch thermal cycler using the resultant cDNA, qPCR master mix and gene specific primers. The following primers were used: […]
MLECS were cultured and starved for 4 hours in 0.5% FBS. Cells were treated for 4 hours with Wnt3a (200 ng/ml).
To further examine the specificity of GR in this interaction, a similar experiment in GR siRNA-treated cells was performed.

[2] = test system: diabetic CD-1 mice; assay: FA metabolism modulators and simvastatin in diabetic CD-1 mice (renal fibrosis); assay type: in vivo; settings: for fibrogenic phenotype / level of fibrosis in kidneys / fibronectin mRNA level in diabetic kidneys / level of GR protein in CD31 positive cells / αSMA mRNA level in diabetic kidneys: diabetic CD-1 mice treated for 4 weeks; for CPT1a level / β-catenin level: diabetic CD-1 mice, kidney immunohistochemistry
Experimental: (§1) All experiments were performed in accordance with the National Institute of Health (NIH) Guidelines for the Care of Laboratory Animals. Mice lacking the endothelial glucocorticoid receptor (GR) (known as GR^ECKO) and those lacking this receptor on the Apo E null background (DKO) were generated as previously described (6). The induction of diabetes in CD-1 mice and C57B/L6 mice was performed according to previously established experimental protocols (38-42). Briefly, diabetes was induced in 10-week-old GR^ECKO mice with five consecutive intraperitoneal (IP) doses of streptozotocin (STZ) 50 mg/kg in 10 mmol/L citrate buffer (pH 4.5). Wnt inhibitor (LGK974) was provided to GR^ECKO and control littermate at 5 mg/kg at a frequency of six doses per week for 8 weeks (43). Etomoxir (20 mg/kg) and c75 (15 mg/kg) were dosed (ip) three times per week for 3 weeks in the GR^ECKO and control littermate. A single IP dose of 200 mg/kg STZ was used to induce diabetes in CD-1 mice. Fenofibrate (100 mg/kg), simvastatin (40 mg/kg), were dosed orally for 4 weeks in diabetic CD-1 mice. All mice were sacrificed after 4 weeks of treatment and tissues and blood were harvested. Urine albumin levels were assayed using a Mouse Albumin ELISA Kit (Exocell, Philadelphia, Pa.).
(§2) A point-counting method was utilized to evaluate the relative area of the mesangial matrix. PAS-stained glomeruli from each mouse were analyzed using a digital microscope screen grid containing 540 (27×20) points. Masson's trichrome-stained images were evaluated by ImageJ software, and the fibrotic areas were estimated.
(§3) Deparaffinized sections were incubated with picrosirius red solution for 1 hour at room temperature. The slides were washed twice with acetic acid solution for 30 seconds per wash. The slides were then dehydrated in absolute alcohol three times, cleared in xylene, and mounted with a synthetic resin. Sirius red staining was analyzed using ImageJ software, and fibrotic areas were quantified.
(§4) Paraffin-embedded kidney sections (5 μm thick) were deparaffinized and rehydrated (2 min in xylene, four times; 1 min in 100% ethanol, twice; 1 min in 95% ethanol; 45 s in 70% ethanol; and 1 min in distilled water), and the antigen was retrieved in a 10 mM citrate buffer pH 6 at 98° C. for 60 min. To block the endogenous peroxidase, all sections were incubated in 0.3% hydrogen peroxide for 10 min. The immunohistochemistry was performed using a Vectastain ABC Kit (Vector Laboratories, Burlingame, Calif.). Mouse anti-[…] antibody (1:100) and CPT1a (Abnova; H00001374-DO1P; 1:100) antibody was used. In the negative controls, the primary antibody was omitted and replaced with the blocking solution.
Frozen kidney sections (5 μm) were used for immunofluorescence; double positive labeling with CD31/αSMA, CD31/TGFβR1 and E-cadherin/αSMA was measured. Briefly, frozen sections were dried and placed in acetone for 10 min at −30° C. Once the sections were dried, they were washed twice in phosphate-buffered saline (PBS) for 5 min and then blocked in 2% bovine serum albumin/PBS for 30 min at room temperature. Thereafter, the sections were incubated in primary antibody (1:100) for 1 hour and washed in PBS (5 min) three times. Next, the sections were incubated with the secondary antibodies for 30 min, washed with PBS three times (5 min each), and mounted with mounting medium with DAPI (Vector Laboratories, Burlingame, Calif.). The immune-labeled sections were analyzed by fluorescence microscopy. For each mouse, original magnification of ×400 pictures were obtained from six different areas, and quantification was performed.
Total RNA was isolated using standard Trizol protocol. RNA was reverse transcribed using the iScript cDNA Synthesis kit (Bio-Rad) and qPCR was performed on a Bio-Rad C1000 Touch thermal cycler using the resultant cDNA, as well as qPCR Master mix and gene specific primers.
It is increasingly recognized that defects in central metabolism contribute to kidney fibrosis (69, 76). […]

[3] = test system: diabetic GR^ECKO mice and control littermates; assay: Etomoxir and C75 in diabetic control littermates and diabetic GR^ECKO mice; assay type: in vivo; settings: for body weight: diabetic control littermates and GR^ECKO mice, ip three times per week for 3 weeks
Experimental: as §1, §2, §3, §4
Etomoxir and C75 were also tested in the diabetic control littermates and diabetic GR^ECKO mice. […] (FIG. 17D-E).

[4] = test system: kidney endothelial cells; assay: Fatty acid oxidation (14CO2 release from [14C]palmitate) in isolated kidney endothelial cells; assay type: in vivo, mice; settings: for FAO, as measured by 14CO2 release: diabetic CD-1 mice treated for 4 weeks
Experimental: Endothelial cells from the kidneys of non-diabetic and diabetic mice were isolated using a standardized kit (Miltenyl Biotech, USA) by following the manufacturer's instructions. Briefly, kidneys were isolated and minced into small pieces. Using a series of enzymatic reactions by treating the tissue with trypsin and Collagenase type I solution, a single cell suspension was created. The pellet was dissolved with CD31 magnetic beads and the CD31-labelled cells were separated on a magnetic separator. The cells were further purified on a column. Cell number was counted by hemocytometer and cells were plated on 0.1% gelatin coated Petri dishes.
Cultured isolated kidney endothelial cells were incubated with medium containing 0.75 mmol/L palmitate (conjugated to 2% free fatty acid-free BSA/[^14C] palmitate at 2 μCi/mL) for 2 h. One mL of the culture medium was transferred to a sealable tube, the cap of which housed a Whatman filter paper disc. ^14CO2 trapped in the media was then released by acidification of media using 60% perchloric acid. Radioactivity that had become adsorbed onto the filter discs was then quantified by liquid scintillation counting.
It is increasingly recognized that defects in central metabolism contribute to kidney fibrosis (69, 76). Defective FA metabolism in EC leads to EndMT events (77). To investigate whether FA metabolism was deranged in the model, radiolabeled [^14C]palmitate uptake experiments were performed in isolated EC from mouse kidneys. FA uptake was higher in isolated EC from the diabetic kidneys of the more fibrotic strain (diabetic CD-1) when compared to kidney EC from the less-fibrotic strain (diabetic C57BL/6). […] FA oxidation (FAO) was also assessed by measuring the ^14CO2 release from radiolabeled [^14C]palmitate in cultured EC isolated from kidneys. […] In the next set of experiments, diabetic CD-1 mice were treated with the FA synthase inhibitor C75, the FAO inhibitor etomoxir, the PPARα agonist fenofibrate, and the cholesterol-lowering drug simvastatin for 4 weeks. […] (FIG. 23A). Fenofibrate and C75 restored the level of GR protein in CD31 positive cells, whereas etomoxir and simvastatin suppressed it (FIG. 23B).

[5] = Wnt3a-conditioned media 6 hours, then DEX 100 nM 1 hour

Wnt3a
sox17 expression, effect of Wnt3a in GR siRNA-treated cells ([1]; Wnt3a 200 ng/ml 4 hours, GR knockdown): augmented
sox17 expression, effect of Wnt3a ([1]; Wnt3a-conditioned media, MLECs): induced

CCOC(=O)[C@@]1(CCCCCCOc2ccc(Cl)cc2)CO1 [etomoxir]
fibrogenic phenotype / level of fibrosis in kidneys [2]: exacerbated the fibrosis
fibronectin mRNA level in diabetic kidneys [2]: upregulated
level of GR protein in CD31 positive cells [2]: suppressed
αSMA mRNA level in diabetic kidneys [2]: upregulated
CPT1a level [2]: significant suppression
β-catenin level [2]: induced
CPT1a level in kidneys ([3]; diabetic GR^ECKO mice): suppressed the CPT1a level
level of β-catenin in kidneys ([3]; diabetic GR^ECKO mice): increased the expression level of β-catenin
renal fibrogenic phenotype ([3]; diabetic GR^ECKO mice): accelerated the renal fibrogenic phenotype
body weight [3]: no significant differences
CPT1a level in kidneys ([3]; diabetic control mice): suppressed the CPT1a level
level of β-catenin in kidneys ([3]; diabetic control mice): increased the expression level of β-catenin
renal fibrogenic phenotype ([3]; diabetic control mice): accelerated the renal fibrogenic phenotype
FAO, as measured by 14CO2 release [4]: significant suppression
FAO in kidney EC ([4]; diabetic GR^ECKO mice): significant suppression in FAO
FAO in kidney EC ([4]; diabetic control littermates): significant suppression in FAO

C=C1C(=O)OC(CCCCCCCC)C1C(=O)O (stereo not shown) [C75]
fibrogenic phenotype / level of fibrosis in kidneys [2]: ameliorated the fibrogenic phenotype
fibronectin mRNA level in diabetic kidneys [2]: downregulated
level of GR protein in CD31 positive cells [2]: restored
αSMA mRNA level in diabetic kidneys [2]: downregulated
CPT1a level [2]: induced the level of CPT1a
β-catenin level [2]: suppressed the level of β-catenin
body weight [3]: no significant differences
CPT1a level in kidneys ([3]; diabetic control mice): restored CPT1a
level of β-catenin in kidneys ([3]; diabetic control mice): completely diminished the level of β-catenin
renal fibrogenic phenotype ([3]; diabetic control mice): clearly abolished the renal fibrogenic phenotype
FAO, as measured by 14CO2 release [4]: increased the level of FAO
FAO in kidney EC ([4]; diabetic GR^ECKO mice): unable to rescue the level of FAO
FAO in kidney EC ([4]; diabetic control littermates): restored FAO

C[C@@H]1C[C@H]2[C@@H]3CCC4=CC(=O)C=C[C@]4(C)[C@@]3(F)[C@@H](O)C[C@]2(C)[C@@]1(O)C(=O)COP(=O)(O)O [DEX, Dexamethasone phosphate]
sox17 expression, control siRNA vs GR siRNA cells ([1]; Wnt3a 200 ng/ml 4 hours, DEX 100 nM 1 hour): suppressed sox17 expression to a much greater extent in control-siRNA treated cells than in GR siRNA-treated cells
axin2 expression [1, 5]: a similar pattern was observed
sox17 expression [1, 5]: suppressed expression
